Measurements published in publication PMC8026785, “The pharmacokinetics of [^18F]UCB-H revisited in the healthy non-human primate brain” (EJNMMI Research, 2021).
“And” between values parts separate entries of the source, which are not always exact repeats. Equal values may be shown once.

Target: T1, SV2A (Macaca fascicularis, UniProt Q4R4X3)
T1 construct: The current study evaluates [^18F]UCB-H pharmacokinetics in healthy NHPs; from tissue; host or cells: brain of living healthy cynomolgus monkeys (in vivo PET)
Test: Brain PET kinetic modelling (1TCM, 2TCM, 2TCM-c, Logan), test-retest
Type: in vivo, cynomolgus monkeys (Macaca fascicularis)
Procedure: All four non-human primates (NHP) underwent a 2-h (2 h) test and retest PET scan; two NHP underwent an additional 4-h (4 h) retest PET scan. Three NHP underwent one 4-h (4 h) displacement PET scan. Arterial blood sampling was performed during test and retest scans with PET imaging spaced by at least 3 weeks between each scan. To this end, the femoral artery opposite to the saphenous vein used for radioligand injection was cannulated. For the 2-h (2 h) scans, we collected in total 28 blood samples of 1 mL: 16 samples during the first 5 min followed by […] every 5 min and […] every 10 min. For the 4 h scans, we collected an additional 6 samples every 20 min during the last two hours (34 samples in total). Larger samples (2 – 3 mL) were collected at 5, 15, 30, 60, 90, 120 min (2 h) and at 180, 240 min (4 h) for metabolite analysis. Displacement of [^18F]UCB-H was done by intravenous (IV) administration 90 min after [^18F]UCB-H injection of a bolus of 30 mg/kg LEV, or of 80 µg/kg (≈250 nmol/kg) or 5 mg/kg (≈15 µmol/kg) of cold [^19F]-UCB-H. Full experimental design of all NHP is outlined in Additional file 1: Table 1.
PET imaging was performed on the microPET FOCUS220 (Siemens) under standard anesthesia and monitoring procedures. Data acquisition started with the IV bolus injection of [^18F]UCB-H (32.9 ± 1.0 MBq/kg, 0.35 ± 0.07 µg/kg). Dynamic PET images were reconstructed using standard OSEM-2D algorithms while correcting for radioactive decay, scatter, attenuation and detectors inhomogeneity, which were measured prior to PET scanning using respectively ^57Co and ^68Ge external sources.
PET image analysis was performed using PMOD software version 3.8 (PMOD Technologies Ltd., Zurich, Suisse). After individual co-registration of PET-MR images, a cynomolgus atlas published by Ballanger and coworkers was normalized to PET images to extract time activity curves in different brain regions. Volumes of interest (VOI) were cerebral white matter (16.7 cm^3), striatum (0.24 cm^3), thalamus (0.89 cm^3), cerebellum (3.83 cm^3), frontal—(2.50 cm^3), parietal—(5.35 cm^3), and temporal (8.22 cm^3) cortex, and whole brain (72.2 cm^3) as a composite region of all regions in the atlas. [^18F]UCB-H pharmacokinetics were evaluated by analyzing the time activity curves of the test- and retest scans using 1- and 2-tissue compartment models (unconstrained and constrained with global K1/k2 coupled fit across all regions, further referred to as 2TCM and 2TCM-c), and Logan graphical analysis with a fixed t* at 60 min [33] using the arterial plasma input function corrected for radio-metabolites to derive the volume of distribution in each region. Percentage standard error (%SE) was estimated from the theoretical parameter covariance matrix. Only reliable estimates (%SE less than 25%) were included in the current analyses. For the three drug studies, percent displacement of the total activity in the whole brain was estimated relative to an average baseline constructed from the two 4 h baseline studies. Briefly, Standardized Uptake Value (SUV) time activity curves (TACs) were calculated for the two baseline and the three displacement studies. Then, each curve was normalized to the SUV at t = 90 min, corresponding to the timeframe immediately before the administration of the drugs in the displacement studies. Baseline curves were averaged and the percent displacement of total activity was calculated as (baseline-displacement)/baseline at a given time post drug administration (see “Results”).
Statistical analysis was performed using R software (version 3.3.1.). Plasma, intact parent fraction and time activity curves were statistically compared between subjects using a one-factor variance analysis. Absolute Test–Retest variability (aTRV) of PET quantification parameters was calculated as ABS(test—retest) / AVERAGE(test, retest). […]

[1] = Parietal Cortex, Retest, individual NHP
[2] = Parietal Cortex, Test, individual NHP
[3] = Striatum, Retest, individual NHP

T1 sequence (Q4R4X3 whole entry): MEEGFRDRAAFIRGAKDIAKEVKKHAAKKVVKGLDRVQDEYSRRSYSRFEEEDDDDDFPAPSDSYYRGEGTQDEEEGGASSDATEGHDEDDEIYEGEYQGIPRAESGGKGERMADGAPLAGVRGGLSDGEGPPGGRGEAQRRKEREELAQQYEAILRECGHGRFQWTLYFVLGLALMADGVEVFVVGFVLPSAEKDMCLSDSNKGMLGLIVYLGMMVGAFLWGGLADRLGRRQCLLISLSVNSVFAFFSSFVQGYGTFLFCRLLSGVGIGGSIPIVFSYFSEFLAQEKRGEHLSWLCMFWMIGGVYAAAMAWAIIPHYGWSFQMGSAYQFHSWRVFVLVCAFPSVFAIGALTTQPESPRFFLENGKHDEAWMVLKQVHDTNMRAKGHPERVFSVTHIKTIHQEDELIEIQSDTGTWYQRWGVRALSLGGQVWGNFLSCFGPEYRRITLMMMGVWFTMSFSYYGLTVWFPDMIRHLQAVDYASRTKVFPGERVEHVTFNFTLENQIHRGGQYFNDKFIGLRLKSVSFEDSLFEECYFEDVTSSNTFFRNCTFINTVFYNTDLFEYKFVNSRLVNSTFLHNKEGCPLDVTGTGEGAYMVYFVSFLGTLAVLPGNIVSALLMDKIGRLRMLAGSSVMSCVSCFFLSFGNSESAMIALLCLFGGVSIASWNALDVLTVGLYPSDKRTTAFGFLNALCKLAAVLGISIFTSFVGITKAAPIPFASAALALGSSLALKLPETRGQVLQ

VT (2TCM) (Frontal cortex, Retest, mean): 13.1 mL/cm^3
VT (2TCM-c) (Frontal cortex, Retest, mean): 14.7 mL/cm^3
VT (Logan (t* = 60)) (Frontal cortex, Retest, mean): 14.8 mL/cm^3
k3/k4 (BPND) (2TCM-c) (Frontal cortex, Retest, mean): 1.32
VT (1TCM) (Frontal cortex, Test, mean): 13.8 mL/cm^3
VT (2TCM) (Frontal cortex, Test, mean): 16.3 mL/cm^3
VT (2TCM-c) (Frontal cortex, Test, mean): 14.8 mL/cm^3
VT (Logan (t* = 60)) (Frontal cortex, Test, mean): 15.0 mL/cm^3
k3/k4 (BPND) (2TCM-c) (Frontal cortex, Test, mean): 1.25
ICC of VT, overall (Logan): ~ 0.6
aTRV of VT, overall (Logan): ~ 11% and ~ 12%
aTRV of VT (MA1, data not shown): ~ 11%
K1/k2 (2TCM) [1]: 13.02 ml/cm^3 and 14.99 ml/cm^3
VT (2TCM) [1]: 13.98 ml/cm^3 and 13.26 ml/cm^3
k3/k4 (2TCM-c) [1]: 2.02 and 1.04 and 0.78 and 0.83
VT (2TCM) [2]: 12.22 ml/cm^3 and 18.71 ml/cm^3
k3/k4 (2TCM) [2]: 0.59
k3/k4 (2TCM-c) [2]: 1.56 and 1.38 and 0.37 and 1.00
ICC of 2TCM-c VT (Parietal cortex): 0.38
ICC of Logan (t* = 60) VT (Parietal cortex): 0.75
aTRV of 2TCM-c VT (Parietal cortex): 19%
aTRV of Logan (t* = 60) VT (Parietal cortex): 12%
VT (1TCM) (Parietal cortex, Retest, mean): 14.8 mL/cm^3
VT (2TCM) (Parietal cortex, Retest, mean): 13.6 mL/cm^3
VT (2TCM-c) (Parietal cortex, Retest, mean): 16.1 mL/cm^3
VT (Logan (t* = 60)) (Parietal cortex, Retest, mean): 15.7 mL/cm^3
k3/k4 (BPND) (2TCM-c) (Parietal cortex, Retest, mean): 1.17
VT (1TCM) (Parietal cortex, Test, mean): 14.3 mL/cm^3
VT (2TCM) (Parietal cortex, Test, mean): 15.5 mL/cm^3
VT (2TCM-c) (Parietal cortex, Test, mean): 15.4 mL/cm^3
VT (Logan (t* = 60)) (Parietal cortex, Test, mean): 15.4 mL/cm^3
k3/k4 (BPND) (2TCM-c) (Parietal cortex, Test, mean): 1.08
ICC of Logan (t* = 60) VT (Striatum): 0.67
aTRV of 2TCM-c VT (Striatum): 12%
aTRV of Logan (t* = 60) VT (Striatum): 11%
K1/k2 (2TCM) [3]: 11.34 ml/cm^3 and 15.36 ml/cm^3
VT (2TCM) [3]: 13.09 ml/cm^3 and 15.01 ml/cm^3
k3/k4 (2TCM-c) [3]: 0.80 and 2.25 and 0.97 and 0.45
VT (1TCM) (Striatum, Retest, mean): 14.8 mL/cm^3
VT (2TCM) (Striatum, Retest, mean): 14.1 mL/cm^3
VT (2TCM-c) (Striatum, Retest, mean): 15.3 mL/cm^3
Structure (SMILES): O=C1C[C@H](c2cc(F)c(F)c(F)c2)CN1Cc1ccncc1[18F] [[^18F]UCB-H]
K1 (2TCM) [1]: 0.42 ml/cm^3 /min and 0.32 ml/cm^3 /min and 0.38 ml/cm^3 /min and 0.33 ml/cm^3 /min
K1 (2TCM-c) [1]: 0.44 ml/cm^3 /min and 0.33 ml/cm^3 /min and 0.38 ml/cm^3 /min and 0.34 ml/cm^3 /min
K1/k2 (2TCM-c) [1]: 4.64 ml/cm^3 and 9.07 ml/cm^3 and 10.70 ml/cm^3 and 7.25 ml/cm^3
VT (1TCM) [1]: 13.99 ml/cm^3 and 16.57 ml/cm^3 and 15.57 ml/cm^3 and 13.26 ml/cm^3
VT (2TCM-c) [1]: 14.02 ml/cm^3 and 18.28 ml/cm^3 and 18.66 ml/cm^3 and 13.26 ml/cm^3
VT (Logan) [1]: 13.75 ml/cm3 and 19.72 ml/cm3 and 15.91 ml/cm3 and 13.60 ml/cm3
K1 (2TCM) [2]: 0.22 ml/cm^3 /min and 0.40 ml/cm^3 /min and 0.41 ml/cm^3 /min and 0.18 ml/cm^3 /min
K1 (2TCM-c) [2]: 0.23 ml/cm^3 /min and 0.41 ml/cm^3 /min and 0.42 ml/cm^3 /min and 0.18 ml/cm^3 /min
K1/k2 (2TCM) [2]: 7.68 ml/cm^3 and 12.37 ml/cm^3 and 12.79 ml/cm^3 and 13.88 ml/cm^3
K1/k2 (2TCM-c) [2]: 4.35 ml/cm^3 and 8.22 ml/cm^3 and 10.99 ml/cm^3 and 7.86 ml/cm^3
VT (1TCM) [2]: 10.65 ml/cm^3 and 17.46 ml/cm^3 and 14.10 ml/cm^3 and 15.09 ml/cm^3
VT (2TCM-c) [2]: 11.12 ml/cm^3 and 17.78 ml/cm^3 and 15.03 ml/cm^3 and 17.47 ml/cm^3
VT (Logan) [2]: 11.83 ml/cm3 and 18.19 ml/cm3 and 15.28 ml/cm3 and 16.49 ml/cm3
K1 (2TCM) [3]: 0.41 ml/cm^3 /min and 0.54 ml/cm^3 /min and 0.44 ml/cm^3 /min and 0.46 ml/cm^3 /min
K1 (2TCM-c) [3]: 0.42 ml/cm^3 /min and 0.58 ml/cm^3 /min and 0.46 ml/cm^3 /min and 0.47 ml/cm^3 /min
K1/k2 (2TCM-c) [3]: 7.25 ml/cm^3 and 4.64 ml/cm^3 and 9.07 ml/cm^3 and 10.70 ml/cm^3
VT (1TCM) [3]: 13.04 ml/cm^3 and 14.96 ml/cm^3 and 15.52 ml/cm^3 and 15.75 ml/cm^3
VT (2TCM-c) [3]: 13.08 ml/cm^3 and 15.06 ml/cm^3 and 17.64 ml/cm^3 and 15.26 ml/cm^3
VT (Logan) [3]: 13.39 ml/cm3 and 14.93 ml/cm3 and 18.31 ml/cm3 and 16.14 ml/cm3
